Experiments:
(HEK293 cells) = assay: [3H]-WIN55212-2 binding competition in HEK293 cells; design: species or system human; conditions: FIG. 2c
Procedure: Cells were grown to 90% confluence, rinsed twice with 1× PBS and stored at −80° C. until further use. To prepare crude cellular membrane fractions, dishes were removed from −80° C. and thawed at room temperature for 5 min. Once thawed, cells were lysed with ice-cold homogenization buffer (50 mM Tris, 1 mM EDTA, 3 mM MgCl2) and gently scraped from the dish. Total cell lysates from 3-5 dishes were collected on ice in 3 ml of ice-cold homogenization buffer Cells were homogenized at 6,500 rpm (PRO Scientific, Oxford, Conn.) twice for 10 sec and centrifuged at 11,500 rpm for 20 min at 4° C. Supernatants were discarded and cell pellets were resuspended in homogenization buffer and tris rated 10 times in ice-cold homogenization buffer. Crude cellular membrane homogenates were stored at −80° C. until further use. […]
Due to the lipophillic nature of the tested compounds, all experiments were performed in silanized glass test tubes (Alltech, Deerfield, Ill.) with silanized pipette tips (VWR Scientific, Brisbane, Calif.) to reduce the loss of ligands. […] For competition binding assays, specific binding was calculated by subtracting the average dpm (disintegrations per minute, dpm) if non-specific points from the individual dpm values for each total binding point and expressed as either fmol/mg for saturation analyses or as a percent of total radioligand binding in competition curves. […]

T98 g cells = assay: Signaling pathway and cell death in T98 g cells; format: cell-based, human
Procedure: To determine the signaling pathway activated by AI receptors, T98 g cells were treated and changes in select kinase and mediatior of cell death were measured.

[1] = tested on: AI receptors (mouse microglia in primary culture); assay: [3H]-WIN55212 binding in mouse microglia
[2] = tested on: mouse microglia in primary culture; assay: Microglia cell migration; format: cell-based

## CCn1c(C)c(C(=O)c2ccc(C)c3ccccc23)c2ccccc21 [ST-11]
(HEK293 cells)
  competition for [3H]-WIN55212-2 binding: competes
T98 g cells; after 48 hrs
  cell death (cell number, nuclear fragmentation, cell blebbing): followed by cell death
T98 g cells; within hours
  PARP cleavage: cleaves PARP
  activation of PLK-1: induces the activation of PLK-1
  caspase 3 activation: caspase 3 activation
[1]
  competition for [3H]-WIN55212 binding: competed
[2]
  microglia cell migration stimulated by ATP: inhibits
